# Data from US6652633B2, “Fire retardant” (Arch Wood Protection, Inc., priority 2001, dated 2003).
# Assay: potentiometric titration against 0.1 N NaOH with mannitol complexation (equivalence points)
# Type: physicochemical
# Conditions: aqueous GUP/boric acid solution complexed with mannitol; potentiometric titration of GUP/boric acid solutions, samples complexed with mannitol; read-out: pKa (equivalence point)
# Experimental: The mixture was heated to approximately 48° C. to dissolve all of the solids, and a sample for analysis taken. The temperature of the solution was then raised and maintained between 70° C. and 90° C. for 3.5 hours. Samples of the solution were analyzed by potentiometric titration every hour, and at the end of the 3.5 hour reaction period.
# The samples were titrated against approximately 0.1 N NaOH (standardized against a potassium hydrogen phthalate standard from NIST). Because the pKa of GUP is very close to that for boric acid, the samples were each complexed with 10 g of mannitol to form a boric acid ester having a lower pKa that is more easily distinguishable from that of GUP. The results are given in Table 1,below, and plotted on FIG. 1.
# Approximately 0.1000 g of solid product was combined with about 10 g mannitol and titrated against 0.1 N NaOH. The mannitol was added to react with the boric acid to for a borate ester, which has a much lower equivalence point than GUP. […] The loss in yield was attributable to the short reaction time allowed in this example. A kinetic analysis was subsequently undertaken, and it was determined that an increase in GUP yield could be obtained by increasing the reaction time, as indicated in Table 4 below.
smiles,measurement,value
"N=C(N)NC(N)=O [GUP, guanylurea phosphate]",pKa,7.25
